# Laboratory results from PubChem BioAssay AID2305 (GlaxoSmithKline (GSK), 2010).
# Several values for one entry are separate records, joined by “and”; a condition that tells them apart may be missing. Equal entries are not always repeated.
# System: P. falciparum 3D7 growth, pLDH absorbance
# Test: blood-stage malaria parasite growth potency – strain 3D7, dose response (AID 2305)
row,SMILES,IC50
1,CC(=O)N(C)C1CCN(Cc2ccc(-c3ccc(-c4nc5ccc(F)cc5[nH]4)s3)cc2)C1 (centres undefined),970 nM
2,CCC(CC(NCCCCNC(=O)c1ccc(NC(=O)c2ccc(Cl)cc2)cc1)c1ccccc1)c1ccccc1OC (centres undefined),670 nM and 790 nM
3,COc1ccc2nccc(N3CCN(CCNCc4ccc5c(n4)NC(=O)CS5)CC3)c2n1,840 nM
4,Oc1ccc(CC2CCCN(c3nc(NCCCOc4ccccc4-c4ccccc4)nc(N4CCNCC4)n3)C2)cc1 (centres undefined),920 nM
5,CCOC(=O)c1ccc2nc(-c3ccc(C(=O)NCc4ccc(C(C)(C)C)cc4)cc3)[nH]c2c1,850 nM
6,O=C(Nc1cccc([N+](=O)[O-])c1)Nc1cccc(C(F)(F)F)c1,770 nM
7,COCCN1CCN(Cc2ccc(-c3ccc(-c4nc5c(C)cccc5[nH]4)s3)cc2)CC1,860 nM
8,CC(C)CCN1CCC(Oc2ccc(NC(=O)c3ccccc3)cc2Cl)CC1,1300 nM
9,CC(C)(C)c1nn(-c2ccc(Cl)cc2)c2[nH]c(=O)c(CNCc3ccc4c(c3)OCO4)cc12,810 nM
10,Cc1cccc(Cl)c1S(=O)(=O)Nc1cccc(CCN2CCC(N3CCCCC3)CC2)c1,1110 nM
11,Cn1cncc1-c1ccc2c(-c3ccsc3)cnc(N)c2c1,850 nM
12,CCOC(=O)c1c(C)n(-c2ccccc2)c2ccc(OC(=O)COc3ccc(Cl)cc3Cl)cc12,430 nM
13,COc1ccc(C(=O)N2CCC3(CC2)C(=O)N(CC(=O)NCC2CCCCC2)CN3c2ccccc2)cc1,270 nM
14,CC[C@H]1CN2CC[C@@H]1C[C@H]2[C@H](O)c1cc(N2CCOCC2)nc2ccc(OC)cc12,120 nM
15,C=C[C@]1(C)C[C@@H](OC(=O)CNC[C@@H](O)CN2C[C@H](c3ccnc4ccc(OC)nc34)OC2=O)[C@]2(C)[C@H](C)CC[C@]3(CCC(=O)[C@H]32)[C@@H](C)[C@@H]1O,950 nM
16,CN1CCCC1CCCOC(=O)c1ccc(N)cc1 (centres undefined),920 nM
17,C[C@@H]1CN(c2cnn(Cc3ccc(NC(=O)Nc4cccc(C(F)(F)F)c4)cc3)c(=O)c2Cl)C[C@H](C)N1,940 nM
18,CCN(CC)c1ccc(C=CC(=O)NCCN2CCC(N(C)C3CCCCC3C)CC2)cc1 (centres undefined),960 nM
19,Cc1cc(C)c(-c2n[nH]c3c2C(c2cccc(Cl)c2)N(Cc2ccco2)C3=O)c(O)c1 (centres undefined),1010 nM
20,Cn1c(Nc2nnc(C3CC3)s2)nc2cc(Nc3ccnc(Nc4cccc(CS(C)(=O)=O)c4)n3)ccc21,680 nM
21,Cc1ccc(Cl)c2sc(N3CCN(C(=O)c4ccc([N+](=O)[O-])o4)CC3)nc12,320 nM
22,Oc1ccc2[nH]c(-c3cccs3)nc2c1CN1CCC(N2CCCC2)CC1,640 nM
23,CC(=O)c1cccc(Nc2nc3c(C#N)c(OCc4cc(Cl)cc(Cl)c4)ccc3[nH]2)c1,870 nM

row,SMILES,IC50
1,CC(C)(C)c1ccc(CN2CCC(NC(=O)c3ccc(-c4cccc(F)c4)s3)CC2)cc1,1090 nM
2,Cn1c(-c2ccccc2)cc2c3c(=O)cc(C(F)(F)F)[nH]c3ccc21,850 nM
3,CNS(=O)(=O)CCNCc1ccc(-c2ccc3ncnc(Nc4ccc(OCc5ccccc5)cc4)c3c2)o1,730 nM
4,CCNC(=NCc1ccccc1)NCCCCCCNC(=NCc1ccccc1)NCC,700 nM
5,O=C(NC1CCN(Cc2ccccc2)CC1)c1cccc(-c2cc3cc(Cl)c(Cl)cc3[nH]2)c1,720 nM
6,O=C(Nc1ccc(Cl)cc1)c1ccc(CN2CCCN(CC3CCCCC3)CC2)cc1,220 nM
7,O=C(Nc1ccc(Br)c(Cl)c1)c1cc([N+](=O)[O-])cc2cn[nH]c12,1060 nM
8,CCOCCCn1c(=N)c(C(=O)NCc2ccc(OC)cc2)cc2c(=O)n3cccc(C)c3nc21,1060 nM
9,CC(C)c1ccc(CN2CCC(CNC(=O)c3cc(-c4cccc(C(F)(F)F)c4)cs3)C2)cc1 (centres undefined),910 nM
10,COc1ccc(CN2CCN(CCOC(c3ccccc3)c3ccccc3)CC2)c(O)c1,1190 nM
11,CCCCC(N)COc1cccc2c(-c3ccncc3)c(-c3cccc(NC(=O)Nc4ccccc4)c3)nn12 (centres undefined),880 nM
12,CC1(C)N=C(N)NC(NOCCCCCCONC2=NC(C)(C)N=C(N)N2)=N1,30 nM
13,C[C@@H](NCCc1cccc(Cl)c1)[C@@H](O)c1ccc(OCCCCCCOc2ccc([C@H](O)[C@@H](C)NCCc3cccc(Cl)c3)cc2)cc1,400 nM
14,COCCNCc1cccc(-c2ccc(CNC3CCN(Cc4ccccc4)CC3)cc2)c1,510 nM
15,COc1ccc(Cl)cc1C(=O)Nc1ccc(-c2nc3ccccc3[nH]2)cc1,770 nM
16,CC1CCCCN1Cc1cccc(-c2c[nH]c3nc(NC4CCCC4)ncc23)c1 (centres undefined),1310 nM
17,COc1ccc(C(=O)CCC(=O)N(Cc2ccc(-c3ccc(CNCCc4ccc(S(C)(=O)=O)cc4)cn3)cc2)C2CCN(Cc3ccccc3)CC2)cc1F,440 nM
18,OCc1ccc2nc3c(cc2c1)-c1cccc2cccc-3c12,660 nM
19,CNC(=O)COc1ccc(Nc2nnc(-c3ccc(C)c(S(=O)(=O)NCC4CCCO4)c3)c3ccccc23)cc1 (centres undefined),930 nM
20,COc1ccc(Br)cc1/C=C/C(=O)Nc1ccc(C2CCCN(C)C2)cc1 (centres undefined),630 nM
21,Cc1cc(OCCCN2CCC(NS(=O)(=O)c3cccc(Br)c3)CC2)c2ccccc2n1,1110 nM
22,CCOc1ccc(Cc2c(C)nc3nc(N)nc(N)c3c2C)cc1,1060 nM
23,OC1CCN(c2cc(-c3ccccn3)nc(-c3ccccn3)n2)CC1,1050 nM

row,SMILES,IC50
1,COc1cccc(CNC(=O)c2cccc(-c3ccc(CN4CCC(N5CCCC5)CC4)cc3)n2)c1,1790 nM
2,CCNC(=O)N1CCc2ccc(Oc3nc(NCc4ccccc4OC)ncc3C)cc2CC1,1070 nM
3,O=C(Nc1cccc(-c2cccc(CN3CCCC3)c2)c1)c1cccc(Cl)c1,1180 nM
4,Cc1nc(-c2ccc(C(F)(F)F)cn2)sc1C(=O)N1CCc2cc3nccc(N4CCN5CCC[C@H]5C4)c3cc21,780 nM
5,Nc1nc(N)c2c(ccc3c2ccn3Cc2ccc(-c3ccccc3)cc2)n1,50 nM
6,CCC(CC)(Cc1ccccc1)NC(=O)[C@H](CC1CCCCC1)Nc1ccc(C#N)c2ccccc12,630 nM
7,CCN1[C@@H](c2ccc(Cl)cc2)[C@@H](CNCc2ccccc2O)C[C@@]1(C)CO,310 nM
8,COc1ccc(Nc2ncc3c(-c4cccc(NC(=O)Cc5cccnc5)c4)c[nH]c3n2)cc1OC,720 nM
9,CCCCCCCn1c(=N)n(CC(O)c2ccc(Cl)c(Cl)c2)c2ccccc21 (centres undefined),780 nM
10,Cc1[nH]c(C)c(-c2ccc(C(F)(F)F)cc2)c(=O)c1Br,140 nM
11,O=C(CCNc1ccnc(NCC2CCCCC2)n1)Nc1ccccc1,1100 nM
12,FC(F)(F)c1ccc2c(NCCCNc3ccnc4cc(C(F)(F)F)ccc34)ccnc2c1,30 nM
13,Cc1ccc(-c2cc(C(=O)Nc3ccc(S(=O)(=O)N4CCOCC4)cc3)[nH]n2)c(O)c1C,920 nM
14,O=c1cc(NCCCNC(c2ccccc2)c2ccc(Cl)c(Cl)c2)[nH]c2ccccc12 (centres undefined),1140 nM
15,COc1cc(Nc2ccnc3ccc(C(F)(F)F)cc23)cc(OC)c1OC,700 nM
16,Cc1cc(N(C)C)nc(Nc2ccc(NC(=O)c3cccc(F)c3)cc2)n1,1000 nM
17,Cc1cc(Nc2ccc(O)cc2)nc2cc(O)ccc12,760 nM
18,CCCOc1cc(NC(=O)Nc2ccnc3ccccc23)cc(OCCC)c1,730 nM
19,Cc1cccc2[nH]c(-c3cccc(-c4cccc(CNCCc5ccncc5)c4)c3)nc12,140 nM
20,Cc1cnc(Nc2cccnc2)nc1Nc1ccccc1C(=O)NC(C)C,1200 nM
21,O=c1c2ccc(Sc3ccccn3)cc2n(-c2ccccc2)c2cc(Sc3ccccn3)ccc12,200 nM
22,COc1ccc(-c2ccc(CNC(=O)c3cccc(C#N)c3)c(F)c2)cc1CN1CCCN(C)CC1,800 nM
23,O=C(Nc1ccc(-c2nc3ccccc3[nH]2)cc1)C1CCN(Cc2ccccc2)CC1,1760 nM
